The assay can be described thus: Inhibition of Influenza A virus H5N1 Neuraminidase.

What is called IC50 is the concentration that gives 50% inhibition. For the compound `COc1ccc(C(=O)NNC(=O)CSc2nnc(-c3ccco3)[nH]2)cc1`, the half-maximal inhibitory concentration (IC50) came to 12.2 µM. For `CCc1ccc(NC(=O)CSc2nnc(-c3ccco3)[nH]2)cc1`, the IC50 was found to be 0.11 µM. `COc1ccc(C)cc1NC(=O)CSc1nnc(-c2ccco2)[nH]1` displayed a 50% inhibitory concentration (IC50) of 28.5 µM. `COc1cc(F)ccc1NC(=O)CSc1nnc(-c2ccco2)[nH]1`: the IC50 came out at 1.8 µM. `COc1ccc(OC)c(NC(=O)CSc2nnc(-c3ccco3)[nH]2)c1` displayed an IC50 of 55.3 µM.

`COc1cccc(NC(=O)CSc2nnc(-c3ccco3)[nH]2)c1` returned an IC50 of 0.24 µM.

The compound `COc1cccc(CCNC(=O)CSc2nnc(-c3ccco3)[nH]2)c1` returned a concentration for half-maximal inhibition (IC50) of 9.04 µM. `O=C(CSc1nnc(-c2ccco2)[nH]1)NCCc1cccc(F)c1` showed a 50% inhibitory concentration (IC50) of 8.06 µM. The compound `COc1ccc(NC(=O)CSc2nnc(-c3ccco3)[nH]2)cc1OC` yielded an IC50 of 1.43 µM. `O=C(CSc1nnc(-c2ccco2)[nH]1)NCCc1ccc2c(c1)OCO2` displayed an IC50 of 1.67 µM. As to `O=C(CSc1nnc(-c2ccco2)[nH]1)Nc1cccc(Cl)c1`, the midpoint of inhibition, the IC50, lay at 4.33 µM. As for `CCC(CC)O[C@@H]1C=C(C(=O)O)C[C@H](N)[C@H]1NC(C)=O` [OSELTAMIVIR CARBOXYLATE], inhibition was half-maximal at 0.1 µM (IC50).

These data come from ChEMBL document CHEMBL5131477, “Design, synthesis and biological evaluation of 1,3,4-triazole-3-acetamide derivatives as potent neuraminidase inhibitors” (Bioorg Med Chem Lett, 2022).
